Like-named read-outs stand apart in the source and are kept apart here.
How the values were obtained:
Test in all cases: Test B pre-/postemergence plant response
Assay type in all cases: in vivo
[1] = test system: eastern black (E.B.) nightshade (Solanum ptycanthum); conditions: Preemergence
Procedure, shortened: (§1)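 Visual scoring from 0 (no effect) to 100 (complete control) against untreated controls was done 13 to 15 days after greenhouse treatment. Chemicals were formulated in a surfactant-containing non-phytotoxic solvent and applied to soil preemergence or to 1- to 4-leaf (2-18 cm) plants postemergence.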

[2] = test system: johnsongrass (Sorghum halepense); conditions: for pest or weed control at 31 g/ha / pest or weed control at 62 g/ha: Sorghum halepense, read-out: Plant response rating, Johnsongrass; for pest or weed control at 31 g/ha: 31 g ai/ha; for pest or weed control at 62 g/ha: 62 g ai/ha, 100 complete control
Procedure, shortened: as §1

[3] = test system: blackgrass (Alopecurus myosuroides); conditions: for pest or weed control at 31 g/ha: 31 g ai/ha; for pest or weed control at 62 g/ha: 62 g ai/ha, 100 complete control
Procedure, shortened: as §1

[4] = test system: common ragweed (Ambrosia elation); conditions: for pest or weed control at 31 g/ha / pest or weed control at 62 g/ha: Ambrosia, read-out: Plant response rating, Ragweed; for pest or weed control at 31 g/ha: 31 g ai/ha; for pest or weed control at 62 g/ha: 62 g ai/ha, 100 complete control
Procedure, shortened: as §1

[5] = test system: pigweed (Amaranthus retroflexus); conditions: for pest or weed control at 31 g/ha / pest or weed control at 62 g/ha: Amaranthus retroflexus, read-out: Plant response rating, Pigweed; for pest or weed control at 31 g/ha: 31 g ai/ha; for pest or weed control at 62 g/ha: 62 g ai/ha, 100 complete control
Procedure, shortened: as §1

wild oat (Avena fatua) = conditions: for pest or weed control at 31 g/ha / pest or weed control at 62 g/ha: Avena fatua, read-out: Plant response rating, Oat, Wild; for pest or weed control at 31 g/ha: 31 g ai/ha; for pest or weed control at 62 g/ha: 62 g ai/ha, 100 complete control
Procedure, shortened: as §1

[6] = test system: catchweed bedstraw (Galium aparine); conditions: Preemergence
Procedure, shortened: as §1

[7] = test system: large crabgrass (Digitaria sanguinalis); conditions: for pest or weed control at 31 g/ha: 31 g ai/ha; for pest or weed control at 62 g/ha: 62 g ai/ha, 100 complete control
Procedure, shortened: as §1

[8] = test system: morningglory (Ipomoea coccinea); conditions: for pest or weed control at 31 g/ha / pest or weed control at 62 g/ha: Ipomoea, read-out: Plant response rating, Morningglory; for pest or weed control at 31 g/ha: 31 g ai/ha; for pest or weed control at 62 g/ha: 62 g ai/ha, 100 complete control
Procedure, shortened: as §1

[9] = test system: Italian ryegrass (Lolium multiflorum); conditions: for pest or weed control at 31 g/ha / pest or weed control at 62 g/ha: Lolium multiflorum, read-out: Plant response rating, Ryegrass, Italian; for pest or weed control at 31 g/ha: 31 g ai/ha; for pest or weed control at 62 g/ha: 62 g ai/ha, 100 complete control
Procedure, shortened: as §1

[10] = test system: downy bromegrass (Bromus tectorum); conditions: for pest or weed control at 31 g/ha: 31 g ai/ha; for pest or weed control at 62 g/ha: 62 g ai/ha, 100 complete control
Procedure, shortened: as §1

[11] = test system: common (oilseed) sunflower (Helianthus annuus); conditions: Preemergence
Procedure, shortened: as §1

[12] = 8 g ai/ha, scale 0 to 100 (0 no effect, 100 complete control)
[13] = 8 g ai/ha, postemergence, 0-100 scale
[14] = 16 g ai/ha, postemergence, 0-100 scale
[15] = Preemergence, 8 g ai/ha, scale 0 to 100 (0 no effect, 100 complete control)
[16] = Preemergence, 16 g ai/ha, scale 0 to 100
[17] = post-emergence, Postemergence, scale 0 to 100
[18] = post-emergence, Postemergence, scale 0 to 100, 0 no effect
[19] = pre-emergence, Preemergence, scale 0 to 100 (0 no effect, 100 complete control)
[20] = pre-emergence, Preemergence, 0 to 100 scale, 0 no effect

With `Cc1cc(-c2ccc(Br)cc2)nn1-c1c(O)cn[nH]c1=O` [Compound 78, 4-[3-(4-bromophenyl)-5-methyl-1H-pyrazol-1-yl]-5-hydroxy-3(2H)-pyridazinone] the “Nightshade, E. B. plant response rating” value [1, 12] was 0, the “Nightshade, E. B. plant response rating” value ([1]; 16 g ai/ha, scale 0 to 100) was 0 and the pest or weed control at 31 g/ha ([1]; Solanum, pre-emergence, 31 g ai/ha, scale 0 to 100 (0 no effect, 100 complete control), read-out: Plant response rating, Nightshade, E. B.) was 0%. For the same compound, the pest or weed control at 62 g/ha ([1]; Solanum, pre-emergence, 62 g ai/ha, 0 to 100 scale, 0 no effect, 100 complete control, read-out: Plant response rating, Nightshade, E. B.) was 55%, the “Johnsongrass plant response rating” value [2, 13] was 75 and the “Johnsongrass plant response rating” value [2, 14] was 100. For the same compound, the “Johnsongrass plant response rating” value [2, 15] was 60, the “Johnsongrass plant response rating” value [2, 16] was 80 and the pest or weed control at 31 g/ha [2, 17] was 100%. It also gave a pest or weed control at 62 g/ha [2, 18] of 100%, a pest or weed control at 31 g/ha [2, 19] of 95% and a pest or weed control at 62 g/ha [2, 20] of 100%. The “Blackgrass plant response rating” value [3, 13] was 70, the pest or weed control at 16 g/ha ([3]; Alopecurus myosuroides, post-emergence, Postemergence, 16 g ai/ha, scale 0 to 100, read-out: Plant response rating, Blackgrass) was 95% and the pest or weed control at 31 g/ha ([3]; Alopecurus myosuroides, post-emergence, Postemergence, scale 0 to 100, read-out: Plant response rating, Blackgrass) was 100%. For the same compound, the pest or weed control at 62 g/ha ([3]; Alopecurus myosuroides, post-emergence, Postemergence, scale 0 to 100, 0 no effect, read-out: Plant response rating, Blackgrass) was 100%, the pest or weed control at 31 g/ha ([3]; Alopecurus myosuroides, pre-emergence, Preemergence, scale 0 to 100 (0 no effect, 100 complete control), read-out: Plant response rating, Blackgrass) was 100% and the pest or weed control at 62 g/ha ([3]; Alopecurus myosuroides, pre-emergence, Preemergence, 0 to 100 scale, 0 no effect, read-out: Plant response rating, Blackgrass) was 100%. The “Blackgrass plant response rating” value [3, 15] was 70, the “Blackgrass plant response rating” value [3, 16] was 90 and the “Ragweed plant response rating” value [4, 13] was 0. For the same compound, the “Ragweed plant response rating” value [4, 14] was 0, the pest or weed control at 31 g/ha [4, 17] was 0% and the pest or weed control at 62 g/ha [4, 18] was 60%. For the same compound, the pest or weed control at 31 g/ha [4, 19] was 0%, the pest or weed control at 62 g/ha [4, 20] was 0% and the “Ragweed plant response rating” value [4, 15] was 0. For the same compound, the “Ragweed plant response rating” value [4, 16] was 0, the “Pigweed plant response rating” value [5, 13] was 0 and the “Pigweed plant response rating” value [5, 14] was 0. For the same compound, the pest or weed control at 31 g/ha [5, 17] was 0%, the pest or weed control at 62 g/ha [5, 18] was 0% and the pest or weed control at 31 g/ha [5, 19] was 0%. For the same compound, the pest or weed control at 62 g/ha [5, 20] was 0%, the “Pigweed plant response rating” value [5, 15] was 0 and the “Pigweed plant response rating” value [5, 16] was 0. For the same compound, the “Oat, Wild plant response rating” value (wild oat (Avena fatua); [13]) was 98, the “Oat, Wild plant response rating” value (wild oat (Avena fatua); [14]) was 100 and the pest or weed control at 31 g/ha (wild oat (Avena fatua); [17]) was 100%. For the same compound, the pest or weed control at 62 g/ha (wild oat (Avena fatua); [18]) was 100%, the pest or weed control at 31 g/ha (wild oat (Avena fatua); [19]) was 70% and the pest or weed control at 62 g/ha (wild oat (Avena fatua); [20]) was 85%. For the same compound, the “Oat, Wild plant response rating” value (wild oat (Avena fatua); [15]) was 30, the “Oat, Wild plant response rating” value (wild oat (Avena fatua); [16]) was 40 and the pest or weed control at 31 g/ha ([6]; Galium aparine, pre-emergence, 31 g ai/ha, scale 0 to 100 (0 no effect, 100 complete control), read-out: Plant response rating, Galium) was 0%. The pest or weed control at 62 g/ha ([6]; Galium aparine, pre-emergence, 62 g ai/ha, 0 to 100 scale, 0 no effect, 100 complete control, read-out: Plant response rating, Galium) was 0%, the “Galium plant response rating” value [6, 12] was 0 and the “Galium plant response rating” value ([6]; 16 g ai/ha, scale 0 to 100) was 0. For the same compound, the “Crabgrass, Large plant response rating” value [7, 13] was 98, the pest or weed control at 16 g/ha ([7]; Digitaria sanguinalis, post-emergence, Postemergence, 16 g ai/ha, scale 0 to 100, read-out: Plant response rating, Crabgrass, Large) was 100% and the pest or weed control at 31 g/ha ([7]; Digitaria sanguinalis, post-emergence, Postemergence, scale 0 to 100, read-out: Plant response rating, Crabgrass, Large) was 100%. It also gave a pest or weed control at 62 g/ha ([7]; Digitaria sanguinalis, post-emergence, Postemergence, scale 0 to 100, 0 no effect, read-out: Plant response rating, Crabgrass, Large) of 100%, a pest or weed control at 31 g/ha ([7]; Digitaria sanguinalis, pre-emergence, Preemergence, scale 0 to 100 (0 no effect, 100 complete control), read-out: Plant response rating, Crabgrass, Large) of 100% and a pest or weed control at 62 g/ha ([7]; Digitaria sanguinalis, pre-emergence, Preemergence, 0 to 100 scale, 0 no effect, read-out: Plant response rating, Crabgrass, Large) of 100%. The “Crabgrass, Large plant response rating” value [7, 15] was 15, the “Crabgrass, Large plant response rating” value [7, 16] was 95 and the “Morningglory plant response rating” value [8, 13] was 0. For the same compound, the “Morningglory plant response rating” value [8, 14] was 0, the pest or weed control at 31 g/ha [8, 17] was 0% and the pest or weed control at 62 g/ha [8, 18] was 0%. For the same compound, the pest or weed control at 31 g/ha [8, 19] was 0%, the pest or weed control at 62 g/ha [8, 20] was 0% and the “Morningglory plant response rating” value [8, 15] was 0. The “Morningglory plant response rating” value [8, 16] was 0, the “Ryegrass, Italian plant response rating” value [9, 13] was 90 and the “Ryegrass, Italian plant response rating” value [9, 14] was 98. The pest or weed control at 31 g/ha [9, 17] was 100%, the pest or weed control at 62 g/ha [9, 18] was 100% and the pest or weed control at 31 g/ha [9, 19] was 100%. The pest or weed control at 62 g/ha [9, 20] was 100%, the “Ryegrass, Italian plant response rating” value [9, 15] was 98 and the “Ryegrass, Italian plant response rating” value [9, 16] was 98. The “Bromegrass, Downy plant response rating” value [10, 13] was 55, the pest or weed control at 16 g/ha ([10]; Bromus tectorum, post-emergence, Postemergence, 16 g ai/ha, scale 0 to 100, read-out: Plant response rating, Bromegrass, Downy) was 85% and the pest or weed control at 31 g/ha ([10]; Bromus tectorum, post-emergence, Postemergence, scale 0 to 100, read-out: Plant response rating, Bromegrass, Downy) was 95%. The pest or weed control at 62 g/ha ([10]; Bromus tectorum, post-emergence, Postemergence, scale 0 to 100, 0 no effect, read-out: Plant response rating, Bromegrass, Downy) was 100%, the pest or weed control at 31 g/ha ([10]; Bromus tectorum, pre-emergence, Preemergence, scale 0 to 100 (0 no effect, 100 complete control), read-out: Plant response rating, Bromegrass, Downy) was 80% and the pest or weed control at 62 g/ha ([10]; Bromus tectorum, pre-emergence, Preemergence, 0 to 100 scale, 0 no effect, read-out: Plant response rating, Bromegrass, Downy) was 98%. For the same compound, the “Bromegrass, Downy plant response rating” value [10, 15] was 40, the “Bromegrass, Downy plant response rating” value [10, 16] was 60 and the pest or weed control at 31 g/ha ([11]; Helianthus annuus, pre-emergence, 31 g ai/ha, scale 0 to 100 (0 no effect, 100 complete control), read-out: Plant response rating, Sunflower) was 0%. The pest or weed control at 62 g/ha ([11]; Helianthus annuus, pre-emergence, 62 g ai/ha, 0 to 100 scale, 0 no effect, 100 complete control, read-out: Plant response rating, Sunflower) was 0%, the “Sunflower plant response rating” value [11, 12] was 0 and the “Sunflower plant response rating” value ([11]; 16 g ai/ha, scale 0 to 100) was 0.

From patent publication US20100267561A1, “HERBICIDAL PYRIDAZINONE DERIVATIVES” (priority 2007, published 2010)
